In article PMC8444262, “α-Mangostin Induces Apoptosis and Inhibits Metastasis of Breast Cancer Cells via Regulating RXRα-AKT Signaling Pathway” (Frontiers in Pharmacology, 2021):

Biological target: T1, RXRα (Homo sapiens, UniProt P19793)
T1 construct: gene RXRA; RXRα-LBD
T1 sequence (P19793 198-462): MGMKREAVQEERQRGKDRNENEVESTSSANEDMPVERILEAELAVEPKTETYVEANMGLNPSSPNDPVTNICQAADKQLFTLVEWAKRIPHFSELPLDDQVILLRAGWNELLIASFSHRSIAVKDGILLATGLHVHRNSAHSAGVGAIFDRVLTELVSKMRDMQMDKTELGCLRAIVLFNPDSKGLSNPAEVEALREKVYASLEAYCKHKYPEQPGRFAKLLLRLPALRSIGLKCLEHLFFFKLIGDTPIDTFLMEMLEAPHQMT
Test: SPR (Biacore S200, immobilized RXRα-LBD); supported by antagonism of 9-cis-RA in GAL4-RXRα-LBD reporter assay
Type: binding

**Q.** With `COc1c(O)cc2oc3cc(O)c(CC=C(C)C)c(O)c3c(=O)c2c1CC=C(C)C` [compound 3, α-Mangostin] as the compound, how does the Kd read?
**A.** 39 µM
